Reference: US20210024567A1, “MODIFIED CYCLIC DINUCLEOTIDE COMPOUNDS” (BOEHRINGER INGELHEIM INTERNATIONAL GMBH, priority 2018, published 2021)

Experiments:
hSTING R293Q = biological target: T1, hSTING R293Q (Homo sapiens, UniProt Q86WV6, H232R/R293Q); experiment: THP1-Blue ISG hSTING KO reporter cells re-expressing hSTING R293Q; assay type: cell-based; settings: R293Q variant cell line
T1 construct: expressed in transfected cells; host or cells: THP1-Blue ISG hSTING KO clone, retroviral MSCV-ires-GFP-Blasti
Description: (§1) Several single nucleotide polymorphisms have been identified in the human STING gene that may affect the response to cyclic dinucleotides. To determine the activity of compounds of the invention, THP1-Blue ISG reporter cell lines expressing the different human STING variants have been generated. To do so, the endogenous human STING was first deleted using the CRISPR/CAS9 system: THP1-Blue ISG cells were electroporated with ALL-IN-ONE CRISPR plasmids targeting the STING gene (purchased from Sigma encoding the gRNA and GFP as a reporter gene for successful transduction). GFP positive cells then were sorted 24 h post transfection and expanded. Cells were then dispersed in semisolid methocel medium to allow single cell clone isolations. Clones were then screened for cGAMP responsiveness using the Quanti-blue reporter assay. Non-responsive clones were subsequently analysed for STING loss by western blotting and sequencing of the STING locus.
(§2) For the overexpression of the human STING variants, a confirmed THP1-Blue ISG hSTING KO clone was transduced with individual retroviral plasmids (MSCV-ires-GFP-Blasti) encoding the allelic variants of hSTING (WT, HAQ, R232H, AQ and R293Q), respectively. Transduced cells were sorted for different levels of GFP fluorescence and STING allele expression was analysed by western blot.

hSTING AQ = biological target: T2, hSTING AQ (Homo sapiens, UniProt Q86WV6, G230A/H232R/R293Q); experiment: THP1-Blue ISG hSTING KO reporter cells re-expressing hSTING AQ; assay type: cell-based; settings: AQ variant cell line
T2 construct: expressed in transfected cells; host or cells: THP1-Blue ISG hSTING KO clone, retroviral MSCV-ires-GFP-Blasti
Description: as §1, §2

[1] = biological target: Human STING (hSTING, residues 155-341, wild-type sequence) (Homo sapiens, UniProt Q86WV6, H232R); experiment: hSTING binding by differential scanning fluorimetry (DSF); settings: 100 μM test compound, 3 μM target protein, at least two Tm measurements averaged
Experimental: 3) 2 μl of this protein-dye-mixture (25×SYPRO Orange and 15 μM Protein) was added to 8 μl compound solution. Final volume was 10 μL. 4) Certain well positions were used as negative control. 5) The plates were prepared for duplicate measurement and centrifuged for 2 min at 1000 g. 6) In the measurement, 160 cycles of 0.5° C. were used (temperature ramp 15 s/cycle, 15° C. to 95° C.). Data analysis: The dissociation curves were processed in Bio-Rad CFX Manager. Peak type was set to “negative. At least two Tm measurements were averaged.

[2] = biological target: T3, human STING protein in THP1-Blue ISG cells (Homo sapiens, UniProt Q86WV6, G230A/H232R/R293Q/R71H); experiment: In vitro cytokine induction, THP1-Blue ISG reporter cell assay (IRF-inducible SEAP); assay type: cell-based; settings: 24 hours incubation, SEAP OD at 620 nm
T3 construct: endogenous STING levels form the parental, unmodified THP1-Blue ISG cell lines; endogenous in cells; host or cells: THP1-Blue ISG cells
Description: Activation of the STING protein expressed in THP1 cells results in an increase of interferon production. By the stable integration of an interferon regulatory factor (IRF)-inducible SEAP (secreted embryonic alkaline phosphatase) reporter construct the functional interferon signaling pathway can be monitored. Using Invivogen's QUANTI-Blue™ colorimetric enzyme assay and a suitable optical density (OD) reader the activity of SEAP can be detected and quantified. This technique could be used to characterize pharmacological modification of the STING protein.
Measurements of SEAP activity were performed in THP1-Blue ISG cells stably expressing the human STING protein and the IRF-inducible SEAP reporter construct. Cells were cultivated for expansion in RPMI1640 medium with 10% fetal calf serum, 50 μg/ml Penicillin-Streptomycin, 100 μg/ml Zeocin, and 100 μg/ml Normocin in a 37°, 95% humidity and 5% CO2 incubator. Assay-ready cells were stored as frozen stocks.
In preparation for the assay, the cells were thawed in Zeocin-/Normocin-free medium and were distributed into the assay plates with a density of 15000 cells/15 μL per well. […]
At the day of the assay, 75 μl per well of Quanti-Blue reagent was added to all wells of the plate and the plate was incubated another 30 minutes at 37° C. The OD at 620 nm was measured on the EnVision reader (PerkinElmer). […]

hSTING WT = biological target: T4, hSTING WT (Homo sapiens, UniProt Q86WV6, H232R); experiment: THP1-Blue ISG hSTING KO reporter cells re-expressing hSTING WT; assay type: cell-based; settings: WT variant cell line
T4 construct: expressed in transfected cells; host or cells: THP1-Blue ISG hSTING KO clone, retroviral MSCV-ires-GFP-Blasti
Description: as §1, §2

hSTING R232H = biological target: T5, hSTING R232H (Homo sapiens, UniProt Q86WV6); experiment: THP1-Blue ISG hSTING KO reporter cells re-expressing hSTING R232H; assay type: cell-based; settings: R232H variant cell line
T5 construct: expressed in transfected cells; host or cells: THP1-Blue ISG hSTING KO clone, retroviral MSCV-ires-GFP-Blasti
Description: as §1, §2

hSTING HAQ = biological target: T6, hSTING HAQ (Homo sapiens, UniProt Q86WV6, G230A/H232R/R293Q/R71H); experiment: THP1-Blue ISG hSTING KO reporter cells re-expressing hSTING HAQ; assay type: cell-based; settings: HAQ variant cell line
T6 construct: expressed in transfected cells; host or cells: THP1-Blue ISG hSTING KO clone, retroviral MSCV-ires-GFP-Blasti
Description: as §1, §2

Chain of Human STING (hSTING, residues 155-341, wild-type sequence) (Q86WV6 155-341 H232R limits assumed): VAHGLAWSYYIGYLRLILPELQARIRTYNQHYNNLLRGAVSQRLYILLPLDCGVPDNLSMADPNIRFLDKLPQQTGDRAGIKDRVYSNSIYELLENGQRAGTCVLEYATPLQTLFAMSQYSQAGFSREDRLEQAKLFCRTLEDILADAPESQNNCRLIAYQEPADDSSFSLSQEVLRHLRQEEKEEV
T3 sequence (Q86WV6 whole entry R71H/G230A/H232R/R293Q): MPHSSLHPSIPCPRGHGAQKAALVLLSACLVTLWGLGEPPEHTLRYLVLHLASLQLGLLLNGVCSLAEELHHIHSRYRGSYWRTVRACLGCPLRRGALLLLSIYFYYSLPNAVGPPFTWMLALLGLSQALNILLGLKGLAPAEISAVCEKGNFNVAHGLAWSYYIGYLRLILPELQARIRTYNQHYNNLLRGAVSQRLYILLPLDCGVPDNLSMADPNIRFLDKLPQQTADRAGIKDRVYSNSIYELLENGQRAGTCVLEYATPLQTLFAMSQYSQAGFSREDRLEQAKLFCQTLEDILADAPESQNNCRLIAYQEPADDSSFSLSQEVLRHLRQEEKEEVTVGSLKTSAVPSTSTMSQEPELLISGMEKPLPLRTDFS
T2 sequence (Q86WV6 whole entry G230A/H232R/R293Q): as the sequence (Q86WV6 whole entry R71H/G230A/H232R/R293Q) above, with H71R counted along it
T5 sequence (Q86WV6 whole entry, stated change not applied): as the sequence (Q86WV6 whole entry R71H/G230A/H232R/R293Q) above, with H71R, A230G, R232H, Q293R counted along it
T4 sequence (Q86WV6 whole entry H232R): as the sequence (Q86WV6 whole entry R71H/G230A/H232R/R293Q) above, with H71R, A230G, Q293R counted along it
T1 sequence (Q86WV6 whole entry H232R/R293Q): as the sequence (Q86WV6 whole entry R71H/G230A/H232R/R293Q) above, with H71R, A230G counted along it
T6 sequence (Q86WV6 whole entry R71H/G230A/H232R/R293Q): as the sequence (Q86WV6 whole entry R71H/G230A/H232R/R293Q) above

SMILES	EC50 (hSTING R293Q) [nM]	EC50 (hSTING AQ) [nM]	ΔTm at 100 µM ([1]; read-out: hSTING Tm shift) [°C]	EC50 [2] [nM]	EC50 (hSTING WT) [nM]	EC50 (hSTING R232H) [nM]	EC50 (hSTING HAQ) [nM]	hSTING Tm shift [1] [°C]
Nc1ncnc2c1ncn2[C@@H]1O[C@]23CO[C@@H]1[C@@H]2OP(=O)(S)OC[C@H]1O[C@@H](n2cnc4cncnc42)[C@H](F)[C@@H]1OP(=O)(S)OC3 (single isomer, unassigned) [Example 1.1, Cyclic (2′-F-2′-deoxynebularine-(3′→5′)-phosphorothioate-LNA-adenosine-(3′→5′)-phosphorothioate)]	≤ 1000	≤ 1000	28.8	250	≤ 1000	≤ 1000	≤ 1000	
Nc1ncnc2c1ncn2[C@@H]1O[C@]23CO[C@@H]1[C@@H]2OP(=O)(S)OC[C@H]1O[C@@H](n2cnc4cncnc42)[C@H](F)[C@@H]1OP(=O)(S)OC3 (single isomer, unassigned) [Example 1.2, Cyclic (2′-F-2′-deoxynebularine-(3′→5′)-phosphorothioate-LNA-adenosine-(3′→5′)-phosphorothioate)]				160				19.8
